From US20250082633A1, “COMPOUNDS AND METHODS FOR MODULATING SPLICING” (REMIX THERAPEUTICS INC., priority 2021, published 2025)
Where a name gives a salt, the structure may show the parent alone.

Key:
Target C [1] = experiment: RT-qPCR splicing assay, gene panel, Target C canonical junction (CJ) mRNA; format: cell-based; conditions: Homo sapiens, read-out: Target C CJ IC50
Experimental: Compounds described herein were used to modulate RNA transcript abundance in cells. The expression of a target mRNA was measured by detecting the formation of an exon-exon junction in the canonical transcript (CJ). A compound mediated exon-inclusion event was detected by observing an increase in formation of a new junction with an alternative exon (AJ). Real-time qPCR assays were used to detect these splicing switches and interrogate the potency of various compounds towards different target genes. A high-throughput real time quantitative PCR (RT-qPCR) assay was developed to measure these two isoforms of the mRNA (CJ and AJ) for exemplary genes, such as HTT, SMN2, and MYB, together with a control housekeeping gene, GAPDH or GUSB or PPIA, used for normalization. Briefly, the A673 or K562 cell line was treated with various compounds described herein (e.g., compounds of Formula (I)). After treatment, the levels of the HTT, MYB, or SMN2 mRNA targets were determined from each sample of cell lysate by cDNA synthesis followed by qPCR.
The A673 cell line was cultured in DMEM with 10% FBS. Cells were diluted with full growth media and plated in a 96-well plate (15,000 cells in 100 ul media per well). The plate was incubated at 37° C. with 5% CO2 for 24 hours to allow cells to adhere. An 11-point 3-fold serial dilution of the compounds was made in DMSO then diluted in media in an intermediate plate. Compounds were transferred from the intermediate plate to the cell plate with the top dose at a final concentration of 10 uM in the well. Final DMSO concentration was kept at or below 0.25%. The cell plate was returned to the incubator at 37° C. with 5% CO2 for an additional 24 hours.
The K562 cell line was cultured in IMDM with 10% FBS. For K562, cells were diluted with full growth media and plated in either a 96-well plate (50,000 cells in 50 uL media per well) or a 384-well plate (8,000-40,000 cells in 45 uL media per well). An 11-point 3-fold serial dilution of the compounds were made in DMSO then diluted in media in an intermediate plate. Compound was transferred from the intermediate plate to the cell plate with the top dose at a final concentration of 10 uM in the well. Final DMSO concentration was kept at or below 0.25%. Final volume was 100 uL for 96-well plate and 50 uL for 384-well plate. The cell plate was then placed in an incubator at 37° C. with 5% CO2 for 24 hours.
The cells were then gently washed with 50 uL-100 uL cold PBS before proceeding to addition of lysis buffer. 30 uL-50 μL of room temperature lysis buffer with DNAse I (and optionally RNAsin) was added to each well. Cells were shaken/mixed thoroughly at room temperature for 5-10 minutes for lysis to take place and then 3 uL-5 μL of room temperature stop solution was added and wells were shaken/mixed again. After 2-5 minutes, the cell lysate plate was transferred to ice for RT-qPCR reaction setup. The lysates could also be frozen at −80° C. for later use.
In some cases, a direct lysis buffer was used. An appropriate volume of 3× lysis buffer (10 mM Tris, 150 mM NaCl, 1.5%-2.5% Igepal and 0.1-1 U/uL RNAsin, pH 7.4) was directly added to either K562 or A673 cells in media and mixed by pipetting 3 times. The plates were then incubated at room temperature with shaking/rocking for 20-50 minutes to allow for lysis to take place. After this time, the cell lysate plate was transferred to ice to set up for the RT-qPCR reactions. The lysates could also be frozen at −80° C. for later use.
To set up 10 uL RT-qPCR reactions, cell lysates were transferred to 384-well qPCR plates containing the master mix according to the table below. The plates were sealed, gently vortexed, and spun down before the run. The volumes were adjusted accordingly in some instances where the reaction was carried in 20 μL. The table below summarizes the components of the RT-qPCR reactions:
The RT-qPCR reaction was performed using a QuantStudio (ThermoFisher) under the following fast cycling conditions. […]

Target C [2] = experiment: HiBit protein abundance assay, Target C; format: cell-based; conditions: Homo sapiens; K562 HiBiT-modified cells, 24 hours, luminescence
Experimental: Compounds described herein were used to screen for effects on quantitative protein abundance using a HiBit assay system (Promega). Quantitative protein abundance was determined by measuring the protein levels of HiBit-tagged protein targets expressed in cell culture via luminescence using the Nano-Glo HiBiT Lytic Detection System, which uses a split complementation assay format to reconstitute NanoBiT enzyme to generate a luminescent signal. A protein abundance assay was developed such that endogenous protein targets could be modified with the HiBiT peptide tag and their abundance could be assessed after compound treatment. Briefly, K562 cell lines containing a HiBiT-modification were treated with various compounds described herein (e.g., compounds of Formulas (I), (II), or (III)). After treatment for 24 hours, the protein abundance of a specific target was determined by measuring luminescence. • Promega Nano-Glo HiBiT Lytic Detection System (cat #N3030) • Corning 384-well TC-treated microplates (cat #3570) • Synthego Engineered Cells Knock-In Clones Cells were maintained in IMDM with 10% FBS. Before the assay, cells were diluted with phenolphthalein-free growth media (IMDM+1% FBS media) and were seeded in a 384-well plate at a density of 10000 cells/well (for each cell line listed in Table 6). Each compound was prepared as a 10-point 3-fold serial dilution in DMSO with the top dose at a final concentration of 10 μM in the well. Unmodified K562 cells were added at the previously specified density with DMSO to serve as an assay baseline and positive control (PC) and DMSO only with the respective modified cell lines was added to the negative control (NC) columns. Final DMSO concentration was kept at or below 0.25%. Treated cell plates were placed in an incubator at 37° C. with 5% CO2 for 24 hours. After 24 hours, 25 μL of Complete HiBit Lytic reagent was added to each well at room temperature (e.g. one plate requiring 10 mL Lytic Buffer, 100 μL LgBiT Protein, 200 μL Lytic Substrate), shaken for 5 minutes at 600 RPM, then left to sit for 10 minutes for signal to stabilize before reading on a Spark Cyto plate reader (Tecan) with a 500 ms measurement time. To determine compound effects on protein abundance of each target in Table 6, the percent response for each respective cell line was calculated at each compound concentration as follows: For the normalized response at each concentration, a four-parameter logistical regression was fit to the data and the response was interpolated at the 50% value to determine a concentration for protein abundance at 50% (IC50) the untreated control.

[3] = decrease in CJ mRNA levels, larger panel of genes, Table 3

SMILES	IC50 (Target C [1]; [3])	IC50 (Target C [2])	IC50 (Target C [1])
Cn1cc2cc(-c3cc(F)c4nn(C5CCNC6(CC6)C5)cc4c3)cc(F)c2n1 (centres unmarked) [Compound 108, 2-(4-azaspiro[2.5]octan-7-yl)-7-fluoro-5-(7-fluoro-2-methyl-indazol-5-yl)indazole]	1 to 10 µM	0.1 to 1 µM	
Fc1cc(-c2ccc3ncccc3c2)cc2cn(C3CCNCC3)nc12 [Compound 162, 6-[7-fluoro-2-(4-piperidyl)indazol-5-yl]quinoline]	> 10 µM	1 to 10 µM	
Cc1cc(-c2cc(F)c3nn(C4CCNCC4)cc3c2)cc2cn(C)nc12 [Compound 133, 5-(2,7-dimethylindazol-5-yl)-7-fluoro-2-(4-piperidyl)indazole]	0.1 to 1 µM	< 0.1 µM	
Fc1cc(-c2ccc3cnccc3c2)cc2cn(C3CCNCC3)nc12 [Compound 161, 6-[7-fluoro-2-(4-piperidyl)indazol-5-yl]isoquinoline]	1 to 10 µM	1 to 10 µM	
Cc1cn2nc(-c3cc(F)c4nn(C5CCNC6(CC6)C5)cc4c3)cc(C)c2n1 (centres unmarked) [Compound 171, 6-[2-(4-azaspiro[2.5]octan-7-yl)-7-fluoro-indazol-5-yl]-2,8-dimethyl-imidazo[1,2-b]pyridazine]	< 0.1 µM	< 0.1 µM	
Cc1nc2c(C)cc(-n3cc4cc(N5CCNCC5)cc(F)c4n3)cc2o1 [Compound 119, 6-(7-fluoro-5-piperazin-1-yl-indazol-2-yl)-2,4-dimethyl-1,3-benzoxazole]	> 10 µM	> 10 µM	
Cc1nc2c(C)c(O)c(-c3cc(F)c4nn(C5CCNCC5)cc4c3)cc2o1 [Compound 123, 6-[7-fluoro-2-(4-piperidyl)indazol-5-yl]-2,4-dimethyl-1,3-benzoxazol-5-ol]	1 to 10 µM	0.1 to 1 µM	
Cn1cc2cc(-c3cc(F)c4nn(C5CCNCC5)cc4c3)ccc2n1 [Compound 145, 7-fluoro-5-(2-methylindazol-5-yl)-2-(4-piperidyl)indazole]	0.1 to 1 µM	0.1 to 1 µM	
Cc1cn2nc(-c3ccc4nn(C5CCNCC5)cc4c3)cc(C)c2n1 [Compound 192, 2,8-dimethyl-6-[2-(4-piperidyl)indazol-5-yl]imidazo[1,2-b]pyridazine]	0.1 to 1 µM	0.1 to 1 µM	
Cc1cn2cc(-c3cc(F)c4nn(C5CCNCC5)cc4c3)cc(Cl)c2n1 [Compound 127, 5-(8-chloro-2-methylimidazo[1,2-a]pyridin-6-yl)-7-fluoro-2-(piperidin-4-yl)-2H-indazole hydrochloride salt]	0.1 to 1 µM	< 0.1 µM	
Cc1c(O)c(-c2ccc3nn(C4CCNCC4)cc3n2)cc2cn(C)nc12 [Compound 109, 2,7-dimethyl-5-[2-(4-piperidyl)pyrazolo[4,3-b]pyridin-5-yl]indazol-6-ol]	0.1 to 1 µM	< 0.1 µM	
Cc1cn2cc(-c3cc(F)c4nn(C5CCNCC5)cc4c3)nc(C)c2n1 [Compound 132, 6-[7-fluoro-2-(4-piperidyl)indazol-5-yl]-2,8-dimethyl-imidazo[1,2-a]pyrazine]	1 to 10 µM	0.1 to 1 µM	
Cc1cn2nc(-c3cc(F)c4nn([C@H]5CCNC[C@@H]5F)cc4c3)cc(C)c2n1 [Compound 167, 6-(7-fluoro-2-((3S,4S)-3-fluoropiperidin-4-yl)-2H-indazol-5-yl)-2,8-dimethylimidazo[1,2-b]pyridazine]	0.1 to 1 µM	0.1 to 1 µM	
Cn1cc2cc(-c3cc(F)c4nn(C5CCNCC5)cc4c3)cc(C#N)c2n1 [Compound 130, 5-[7-fluoro-2-(4-piperidyl)indazol-5-yl]-2-methyl-indazole-7-carbonitrile]	0.1 to 1 µM	< 0.1 µM	
Cn1cc2cc(-c3ccc4cn(C5CCNCC5)nc4c3)cc(F)c2n1 [Compound 148, 7-fluoro-2-methyl-5-[2-(4-piperidyl)indazol-6-yl]indazole]	> 10 µM	> 10 µM	
Cc1cn2nc(-c3cc(F)c4nn([C@H]5CCNC6(CC6)C5)cc4c3)cc(C)c2n1 [Compound 172]	< 0.1 µM	< 0.1 µM	
Cc1cn2nc(-c3cc(F)c4nn(C5CCN(CC6CC6)C6(CC6)C5)cc4c3)cc(C)c2n1 (centres unmarked) [Compound 183, 6-[2-[4-(cyclopropylmethyl)-4-azaspiro[2.5]octan-7-yl]-7-fluoro-indazol-5-yl]-2,8-dimethyl-imidazo[1,2-b]pyridazine]	< 0.1 µM	< 0.1 µM	
Cc1ccc2cc(-c3cc(F)c4nn(C5CCNCC5)cc4c3)ccc2n1 [Compound 163, 6-[7-fluoro-2-(4-piperidyl)indazol-5-yl]-2-methyl-quinoline]	> 10 µM	1 to 10 µM	
Cc1cn2nc(-c3cc4cn(C5CCNCC5)nc4c(OCc4ccccc4)n3)cc(C)c2n1 [Compound 153, 6-[7-benzyloxy-2-(4-piperidyl)pyrazolo [3,4-c]pyridin-5-yl]-2,8-dimethyl-imidazo[1,2-b]pyridazine]	> 10 µM	1 to 10 µM	
Cc1cn2nc(-c3cc(F)c4nn(C5CCNCC5)cc4c3)cc(C)c2n1 [Compound 122, 6-(7-fluoro-2-(piperidin-4-yl)-2H-indazol-5-yl)-2,8-dimethylimidazo [1,2-b]pyridazine hydrochloride salt]		< 0.1 µM	< 0.1 µM
Cc1nc2ccc(-c3cc(F)c4nn(C5CCNCC5)cc4c3)cc2s1 [Compound 134, 6-(7-fluoro-2-(piperidin-4-yl)-2H-indazol-5-yl)-2-methylbenzo[d]thiazole]	> 10 µM	1 to 10 µM	
Cc1cn2nc(-c3cc(F)c4nn(CC5CCNCC5)cc4c3)cc(C)c2n1 [Compound 212, 6-[7-fluoro-2-(4-piperidylmethyl)indazol-5-yl]-2,8-dimethyl-imidazo[1,2-b]pyridazine]	0.1 to 1 µM	< 0.1 µM	
